Key:
[1] = target: T1, recombinant human ULK1 protein (1-649) (Homo sapiens, UniProt O75385); test: ULK1 inhibition assay (ADP Glo); type: biochemical
T1 construct: recombinant human ULK1 protein (1-649, SignalChem #U01-11G); purchased SignalChem U01-11G
T1 sequence (O75385 1-649): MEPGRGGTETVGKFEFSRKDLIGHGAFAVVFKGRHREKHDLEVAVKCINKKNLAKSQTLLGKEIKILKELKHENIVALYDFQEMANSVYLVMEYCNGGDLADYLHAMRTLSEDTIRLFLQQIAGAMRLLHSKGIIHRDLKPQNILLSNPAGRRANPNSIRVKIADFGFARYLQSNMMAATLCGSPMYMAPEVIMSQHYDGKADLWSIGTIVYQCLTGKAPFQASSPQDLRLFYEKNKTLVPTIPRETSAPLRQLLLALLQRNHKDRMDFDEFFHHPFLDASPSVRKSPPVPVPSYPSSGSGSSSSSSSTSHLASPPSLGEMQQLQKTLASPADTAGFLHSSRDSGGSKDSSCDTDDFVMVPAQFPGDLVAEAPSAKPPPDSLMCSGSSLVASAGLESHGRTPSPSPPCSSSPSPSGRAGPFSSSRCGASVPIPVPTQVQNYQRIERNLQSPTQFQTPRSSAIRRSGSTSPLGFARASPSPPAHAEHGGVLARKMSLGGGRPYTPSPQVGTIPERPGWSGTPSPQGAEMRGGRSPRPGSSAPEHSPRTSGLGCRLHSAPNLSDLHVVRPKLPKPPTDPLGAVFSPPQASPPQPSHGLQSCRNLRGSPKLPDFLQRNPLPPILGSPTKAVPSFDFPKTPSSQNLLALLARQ
Summary of the method: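 Recombinant ULK1 (2 ug/mL) phosphorylated myelin basic protein (80 ug/mL) at 25 uM ATP; ADP formed was detected by ADP-Glo after 1 h. Compounds ran in triplicate, 16-dose 3-fold serial dilution from 30 uM, to give IC50.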

NanoLuc®-ULK1 Fusion = target: T2, NanoLuc®-ULK1 Fusion (Homo sapiens, UniProt O75385); test: ULK1 NanoBRET assay in HEK293T cells; type: cell-based
T2 construct: host or cells: HEK293T
T2 sequence (O75385 1-1050): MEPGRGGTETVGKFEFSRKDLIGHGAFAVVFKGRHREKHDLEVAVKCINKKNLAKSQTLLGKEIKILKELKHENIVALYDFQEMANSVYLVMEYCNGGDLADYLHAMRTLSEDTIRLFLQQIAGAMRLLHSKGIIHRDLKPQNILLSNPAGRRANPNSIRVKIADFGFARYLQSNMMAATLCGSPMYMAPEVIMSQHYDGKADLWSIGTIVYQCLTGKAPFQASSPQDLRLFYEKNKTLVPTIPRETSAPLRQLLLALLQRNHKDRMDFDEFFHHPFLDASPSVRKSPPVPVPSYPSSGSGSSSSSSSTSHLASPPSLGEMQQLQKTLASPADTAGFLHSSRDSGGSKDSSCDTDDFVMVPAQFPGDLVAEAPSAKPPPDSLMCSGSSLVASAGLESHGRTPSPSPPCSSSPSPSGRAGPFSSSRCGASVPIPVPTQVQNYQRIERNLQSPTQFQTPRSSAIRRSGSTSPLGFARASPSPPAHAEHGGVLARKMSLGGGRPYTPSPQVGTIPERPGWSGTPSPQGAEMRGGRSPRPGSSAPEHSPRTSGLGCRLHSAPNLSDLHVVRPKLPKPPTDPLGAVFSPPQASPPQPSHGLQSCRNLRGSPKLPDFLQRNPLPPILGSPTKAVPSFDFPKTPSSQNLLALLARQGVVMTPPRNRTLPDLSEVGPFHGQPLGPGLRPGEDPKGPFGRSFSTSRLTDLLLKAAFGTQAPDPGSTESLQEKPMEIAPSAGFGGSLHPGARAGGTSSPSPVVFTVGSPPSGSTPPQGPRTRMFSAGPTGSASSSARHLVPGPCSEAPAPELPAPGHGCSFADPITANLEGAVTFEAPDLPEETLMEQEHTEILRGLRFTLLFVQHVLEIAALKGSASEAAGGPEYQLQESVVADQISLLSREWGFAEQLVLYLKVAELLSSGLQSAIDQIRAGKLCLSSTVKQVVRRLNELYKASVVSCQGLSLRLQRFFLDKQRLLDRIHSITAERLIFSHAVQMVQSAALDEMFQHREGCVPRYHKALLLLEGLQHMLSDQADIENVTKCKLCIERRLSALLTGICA
Method: IC50s were also measured by ULK1 NanoBRET assay according to the following protocol: Human embryonic kidney cells (HEK293T) were transfected with NanoLuc®-ULK1 Fusion Vector (Promega #NV2211) using jetPRIME transfection reagent (Polyplus Transfection #114-15). Following 24 h, cells were trypsinized and resuspended in Opti-MEM® I (1×), Reduced Serum Medium (Gibco, #11058-021). Approximately, 7,000 cells per well (in 34 μL total volume) were replated into non-binding surface 384 well plates. Complete NanoBRET 20× Tracer K-5 reagent was prepared according to the manufacturer's directions and 2 μL were added to each well of the 384 plate (assay plate). The assay plate was mixed on an orbital shaker for 15 seconds at 700 rpm. Compounds were serially diluted at 200× final concentration in 100% DMSO, then diluted to 10× final concentration in assay media (Opti-MEM® I, Reduced Serum Medium). Next, 4 μL 10× test compounds were added to each well of the assay plate, followed by mixing at 700 rpm for 15 seconds. The assay plate was incubated for 2 h in a 37 C incubator with 5% CO2 and then equilibrated to RT for 15 min. The 3× Complete Substrate plus Inhibitor Solution was prepared according to the manufacturer's directions with a concentration of Extracellular NanoLuc® Inhibitor of 60 μM to be used at a working concentration of […]. The 3× Complete Substrate plus Inhibitor Solution was mixed and 20 μL per well was added to the assay plate and incubated at RT for 2-3 min. Donor emission wavelength (450 nm) and acceptor emission wavelength (610 nm) were measured using an assay compatible luminometer (see manufacturer's specifications).

[2] = Table 1, 25 uM ATP, MBP substrate, one hour

CNC(=O)c1ccccc1Nc1nc(Nc2ccc3c(c2)CCN(CCOC)C3)ncc1C(F)(F)F [Compound A119, 2-((2-((2-(2-Methoxyethyl)-1,2,3,4-tetrahydroisoquinolin-6-yl)amino)-5-(trifluoromethyl)pyrimidin-4-yl)amino)-N-methylbenzamide]
IC50 [1, 2]: 1 to 10 nM | IC50 (NanoLuc®-ULK1 Fusion; Table 1, 2 h incubation): < 100 nM

FC(F)(F)c1cnc(Nc2ccc3c(c2)CNC3)nc1NC1CC1 [Compound A55]
IC50 [1, 2]: < 1 nM | IC50 (NanoLuc®-ULK1 Fusion; Table 1, 2 h incubation): < 100 nM

FC(F)(F)c1cnc(Nc2ccc3c(c2)CCN(Cc2c[nH]cn2)C3)nc1NC1CC1 [Compound A51]
IC50 [1, 2]: < 1 nM | IC50 (NanoLuc®-ULK1 Fusion; Table 1, 2 h incubation): < 100 nM

CNC(=O)c1ccccc1Nc1nc(Nc2ccc3c(c2)OCO3)ncc1Br [Compound E5, 2-((2-(Benzo[d][1,3]dioxol-5-ylamino)-5-bromopyrimidin-4-yl)amino)-N-methylbenzamide]
IC50 ([1]; Table 3): 5 to 100 nM | IC50 (NanoLuc®-ULK1 Fusion; Table 3): > 100 nM

CNC(=O)c1ccccc1Nc1nc(Nc2ccc3c(c2)CCNC3)ncc1C(F)(F)F [Compound A120, N-Methyl-2-((2-((1,2,3,4-tetrahydroisoquinolin-6-yl)amino)-5-(trifluoromethyl)pyrimidin-4-yl)amino)benzamide]
IC50 [1, 2]: 1 to 10 nM | IC50 (NanoLuc®-ULK1 Fusion; Table 1, 2 h incubation): < 100 nM

CNC(=O)c1ccccc1Nc1nc(Nc2ccc3c(c2)OCO3)ncc1C(F)(F)F [Compound E6, 2-((2-(Benzo[d][1,3]dioxol-5-ylamino)-5-(trifluoromethyl)pyrimidin-4-yl)amino)-N-methyl benzamide]
IC50 ([1]; Table 3): 5 to 100 nM | IC50 (NanoLuc®-ULK1 Fusion; Table 3): > 100 nM

COCCN1CCc2cc(Nc3ncc(C(F)(F)F)c(NC(C)C)n3)ccc2C1 [Compound A122, N^4-Isopropyl-N^2-(2-(2-methoxyethyl)-1,2,3,4-tetrahydroisoquinolin-6-yl)-5-(trifluoromethyl)pyrimidine-2,4-diamine]
IC50 [1, 2]: 1 to 10 nM | IC50 (NanoLuc®-ULK1 Fusion; Table 1, 2 h incubation): < 100 nM

CNC(=O)c1ccccc1Nc1nc(Nc2ccc3c(c2)OCCO3)ncc1C(F)(F)F [Compound E7, 2-((2-((2,3-Dihydrobenzo[b][1,4]dioxin-6-yl)amino)-5-(trifluoromethyl)pyrimidin-4-yl)amino)-N-methylbenzamide]
IC50 ([1]; Table 3): 5 to 100 nM | IC50 (NanoLuc®-ULK1 Fusion; Table 3): > 100 nM

C#CCC(=O)N1CCc2cc(Nc3ncc(C(F)(F)F)c(NC4CC4)n3)ccc2C1 [Compound A84]
IC50 [1, 2]: 1 to 10 nM | IC50 (NanoLuc®-ULK1 Fusion; Table 1, 2 h incubation): > 100 nM

O=C(CN1CCc2cc(Nc3ncc(C(F)(F)F)c(NC4CC4)n3)ccc2C1)N1CCOCC1 [Compound A47]
IC50 [1, 2]: < 1 nM | IC50 (NanoLuc®-ULK1 Fusion; Table 1, 2 h incubation): < 100 nM

— patent US20230135635A1, “INHIBITORS OF ULK1/2 AND METHODS OF USING SAME” (SALK INSTITUTE FOR BIOLOGICAL STUDIES, priority 2020, published 2023)
